By pIC50 is commonly meant −log10 of the IC50, conventionally taken in molar units. The term pEC50 denotes the negative decadic logarithm of the EC50, by convention in mol/L.

Structures are written as SMILES. pEC50, pIC50: −log10 of the molar value. Where two headings read alike, the source gives them in different places.

Assay [1] addresses T1, HCV NS5B polymerase 1b BK strain (Hepatitis C virus genotype 1b, UniProt P26663).
T1 construct: six-histidine tag; made in house; host or cells: E. coli
The assay is described as follows: HCV NS5B polymerase enzymatic inhibition assay, strain 1b BK. Conditions: enzyme, strain 1b BK; read-out: HCV Polymerase Strain 1b BK IC50. Type of assay: biochemical. On the procedure:
(§1) Purified HCV NS5B polymerase enzymes were used for polymerase inhibition assays. All recombinant HCV polymerases contained the first 570 amino acids of the 591 amino acid native protein sequence and a six-histidine tag at the N-terminus or C-terminus to facilitate purification by affinity chromatography. The DNA nucleotide sequence for the HCV polymerase 1b BK strain was codon optimized for expression in E. coli. A synthetic gene was prepared from a series of overlapping oligonucleotides that were filled in using a DNA polymerase and amplified by PCR. The patient isolate HCV polymerases were cloned by RT-PCR methods using HCV RNA extracted from the serum of infected subjects obtained from ProMedDx and BioCollections (genotypes 2a, 2b, 3a, and 4a). Laboratory strains were cloned from plasmid DNA (1a-H77 or 1a-H77-C316Y) or from existing replicon cells (1b Rice). In all cases the amplified DNA was cloned into a protein expression vector (typically a pET vector from Novagen) and then multiple clones were sequenced to identify one whose NS5B sequence agreed with the population sequence. This sequence-confirmed clone was then transfected into E. coli for protein expression and purification. E. coli cultures were grown to a maximum optical density (OD) of 2-3 and then induced with 0.4 mM isopropyl beta-D-thiogalactopyranoside (IPTG) and grown for 20 hours at 20° C.
(§2) Proteins were purified using nickel affinity chromatography, and additional column steps were added including, ion exchange, size exclusion, hydrophobic ion, and poly-U affinity chromatography, as needed, depending on the sample being purified. The template RNA used in the polymerase enzymatic assay was a 2.1 kb construct that corresponds to the 3′-end of an HCV genotype 1b negative strand RNA.
(§3) The reaction was initiated by the addition of 20 μM CTP, 20 μM ATP, 0.284 μM (0.5 μCi) of 5,6-[^3H] UTP, 5 nM template RNA and 0.1 U/μL RNase inhibitor (RNasin, Promega), and allowed to proceed for three hours at 30° C. The final reaction volume was 50 μL. The reaction was terminated by the addition of 50 uL of 4 mM spermine in 10 mM Tris-HCl, pH 7.5, 1 mM EDTA. The quenched reaction was allowed to incubate for at least 15 minutes at room temperature, and then the precipitated RNA was captured by filtration through a glass fiber filter (GF/B, Millipore) in a 96 well format. The filter plate was washed five times with 200 μL of 2 mM spermine, 10 mM Tris-HCl, pH 8.0, 1 mM EDTA, and two times with ethanol. After drying thoroughly in air, 30 μL of Microscint-20 scintillation cocktail (Perkin Elmer) was added to each well, and the retained cpm were determined by scintillation counting. IC50 values were determined by nonlinear regression.
(§4) % Inhibition=100*[[I]/([I]+[IC50])] equation 1
(§5) V=kcat[S]/2(Km+[S])*(sqrt((IC50+I−E)̂2+(4*IC50*E))−(IC50+I−E)) equation 2

Assay [2] deals with HCV 1a-H77 subgenomic replicon. Description: microbe, parasite or virus in culture. The class given is cell-based, HCV genotype 1a. The following applies: Hepatitis C virus, stable replicon. On the technique in general: In antiviral work, replicon cells carry a viral genome segment that copies itself.
The test system of assay [3] is HCV NS5B polymerase 1a-H77-C316Y. Description: biochemical. Details: species or system HCV genotype 1a. The following applies: ratio of enzyme IC50s, 1a H77-C316Y / 1a H77. On the procedure: as §1, §2, §3, §4, §5
For assay [4], the target named is T2, HCV NS5B polymerase 1a-H77 (Hepatitis C virus genotype 1a, UniProt P27958).
T2 construct: six-histidine tag; made in house; host or cells: E. coli
T2 sequence (P27958 2421-2990): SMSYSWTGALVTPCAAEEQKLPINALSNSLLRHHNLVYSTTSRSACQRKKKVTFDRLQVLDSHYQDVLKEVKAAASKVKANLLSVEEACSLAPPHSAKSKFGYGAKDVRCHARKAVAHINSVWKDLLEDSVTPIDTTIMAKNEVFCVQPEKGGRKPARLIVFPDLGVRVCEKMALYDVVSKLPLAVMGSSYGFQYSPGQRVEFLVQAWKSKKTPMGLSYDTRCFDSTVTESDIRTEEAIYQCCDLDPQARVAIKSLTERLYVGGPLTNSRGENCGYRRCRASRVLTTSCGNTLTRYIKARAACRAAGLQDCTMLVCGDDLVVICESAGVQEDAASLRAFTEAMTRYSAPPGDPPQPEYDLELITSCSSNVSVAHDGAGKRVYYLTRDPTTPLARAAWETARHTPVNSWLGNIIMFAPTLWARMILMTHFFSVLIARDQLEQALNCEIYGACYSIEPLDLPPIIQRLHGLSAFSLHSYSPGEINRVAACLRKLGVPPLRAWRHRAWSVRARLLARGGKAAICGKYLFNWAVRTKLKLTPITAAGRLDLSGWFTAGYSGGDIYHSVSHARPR
The assay is described as follows: biochemical. The following applies: enzyme, strain 1a H77; read-out: HCV Polymerase Strain 1a H77 IC50. On the set-up: species or system HCV genotype 1a. On the procedure:
as §1, §2, §3, §4, §5

The target of assay [5] is T3, HCV NS5B polymerase 1a-H77-C316Y (Hepatitis C virus genotype 1a, UniProt P27958, C2736Y).
T3 construct: six-histidine tag; made in house; host or cells: E. coli
T3 sequence (P27958 2421-2990 C2736Y): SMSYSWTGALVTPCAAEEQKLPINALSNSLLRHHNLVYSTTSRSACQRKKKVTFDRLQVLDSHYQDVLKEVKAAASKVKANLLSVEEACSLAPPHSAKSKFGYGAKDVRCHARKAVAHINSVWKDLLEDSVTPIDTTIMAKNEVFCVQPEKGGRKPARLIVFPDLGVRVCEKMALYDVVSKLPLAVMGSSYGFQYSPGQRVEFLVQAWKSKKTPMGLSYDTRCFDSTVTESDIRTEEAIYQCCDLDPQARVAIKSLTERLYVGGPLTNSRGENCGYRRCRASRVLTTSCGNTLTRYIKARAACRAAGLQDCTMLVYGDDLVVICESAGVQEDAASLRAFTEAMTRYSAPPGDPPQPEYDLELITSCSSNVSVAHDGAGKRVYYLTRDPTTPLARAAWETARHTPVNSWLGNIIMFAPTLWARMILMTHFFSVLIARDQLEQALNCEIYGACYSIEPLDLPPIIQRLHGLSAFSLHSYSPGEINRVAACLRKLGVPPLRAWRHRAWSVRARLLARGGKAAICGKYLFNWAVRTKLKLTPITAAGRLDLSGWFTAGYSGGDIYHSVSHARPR
The assay is described as follows: biochemical. On the set-up: species or system HCV genotype 1a. On the procedure: as §1, §2, §3, §4, §5

Assay [6] concerns HCV 1b-BB7 subgenomic replicon. Description: microbe, parasite or virus in culture. The class given is cell-based, HCV genotype 1b. Conditions: Hepatitis C virus, stable replicon.
The mark [7] stands for this setting: 5% FBS, absence of human plasma, read-out: Stable Replicon 1a H77 5% FBS EC50.
Where [8] appears, read: strain 1a H77, 5% FBS + 40% human plasma, read-out: 1a H77 5% FBS + 40% Human Plasma EC50.
Where [9] appears, read: strain 1a H77, 5% FBS, no human plasma, read-out: 1a H77 5% FBS EC50.
[10] abbreviates: strain 1a H77, 5% FBS, read-out: 1a H77 5% FBS EC50.
Setting [11] is: strain 1b BB7, 5% FBS + 40% human plasma, read-out: 1b BB7 5% FBS + 40% Human Plasma EC50.
The mark [12] stands for this setting: strain 1b BB7, 5% FBS, no human plasma, read-out: 1b BB7 5% FBS EC50.
Where [13] appears, read: strain 1b BB7, 5% FBS, read-out: 1b BB7 5% FBS EC50.

T1 sequence (P26663 2420-2989): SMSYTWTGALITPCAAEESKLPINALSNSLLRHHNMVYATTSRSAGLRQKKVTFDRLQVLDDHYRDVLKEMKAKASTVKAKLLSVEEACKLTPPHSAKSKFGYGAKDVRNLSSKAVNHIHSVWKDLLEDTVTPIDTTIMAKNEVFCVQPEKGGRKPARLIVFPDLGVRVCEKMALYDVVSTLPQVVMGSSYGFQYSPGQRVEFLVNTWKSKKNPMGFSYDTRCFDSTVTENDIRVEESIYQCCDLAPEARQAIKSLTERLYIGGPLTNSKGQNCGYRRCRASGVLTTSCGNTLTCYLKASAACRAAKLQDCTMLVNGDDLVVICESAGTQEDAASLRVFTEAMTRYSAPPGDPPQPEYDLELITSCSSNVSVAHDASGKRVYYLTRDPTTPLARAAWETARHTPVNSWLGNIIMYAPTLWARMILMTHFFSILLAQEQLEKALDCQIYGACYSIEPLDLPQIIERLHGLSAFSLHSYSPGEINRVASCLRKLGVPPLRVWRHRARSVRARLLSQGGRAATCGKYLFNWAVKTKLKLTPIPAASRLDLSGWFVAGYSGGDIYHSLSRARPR

Consider `CC(C)N(c1cc2oc(-c3ccc(F)cc3)c(-c3ncc[nH]3)c2cc1C1CC1)S(C)(=O)=O` [Example 52, N-[5-cyclopropyl-2-(4-fluorophenyl)-3-(1H-imidazol-2-yl)-1-benzofuran-6-yl]-N-isopropylmethanesulfonamide], for which the negative-log IC50 (pIC50) is 6.88 in assay [1], 8.11 in assay [4] and 5.65 in assay [5]. The pEC50 in assay [2] (setting [7]) is 6.89; in assay [2] (setting [8]) it was 5.85; in assay [2] (setting [9]), 6.89; in assay [2] (setting [10]), 6.89; in assay [6] (setting [11]) it was 6.18; in assay [6] (setting [12]), 6.94. In addition, the pEC50 in assay [6] (setting [13]) was 6.94. Further, the “C316Y/1a Fold Resistance” value in assay [3] was determined as 286 fold.

For the compound `CS(=O)(=O)N(CC(N)=O)c1cc2oc(-c3ccc(F)cc3)c(-c3ncc[nH]3)c2cc1C1CC1` [Example 36, N^2-[5-cyclopropyl-2-(4-fluorophenyl)-3-(1H-imidazol-2-yl)-1-benzofuran-6-yl]-N^2-(methylsulfonyl)glycinamide], the pIC50 was 6.73 in assay [1], 8.10 in assay [4] and 5.47 in assay [5]. The pEC50 in assay [2] (setting [7]) was 6.52; in assay [2] (setting [8]) it was 5.67; in assay [2] (setting [9]), 6.52; in assay [2] (setting [10]), 6.52; in assay [6] (setting [11]) it was 5.95; in assay [6] (setting [12]) it was 6.74. Besides, in assay [6] (setting [13]), the pEC50 was 6.74. For the same compound, the “C316Y/1a Fold Resistance” value in assay [3] stood at 428 fold.

Regarding `CS(=O)(=O)N(CC1CCCCC1)c1cc2oc(-c3ccc(F)cc3)c(-c3ncc[nH]3)c2cc1C1CC1` [Example 45, N-(cyclohexylmethyl)-N-[5-cyclopropyl-2-(4-fluorophenyl)-3-(1H-imidazol-2-yl)-1-benzofuran-6-yl]methanesulfonamide], the figures for the pIC50 in assay [1], in assay [4] and in assay [5] were 6.96, 8.12 and 6.53, respectively. The pEC50 in assay [2] (setting [7]) was 7.06; in assay [2] (setting [8]), 5.52; in assay [2] (setting [9]) it was 7.06; in assay [2] (setting [10]), 7.06; in assay [6] (setting [11]), 5.36; in assay [6] (setting [12]) it was 6.74. Further, the pEC50 in assay [6] (setting [13]) is 6.74. Besides, the “C316Y/1a Fold Resistance” value in assay [3] is given as 39 fold.

Take `CS(=O)(=O)NC(=O)CCCN(c1cc2oc(-c3ccc(F)cc3)c(-c3ncc[nH]3)c2cc1C1CC1)S(C)(=O)=O` [Example 105, 4-{[5-cyclopropyl-2-(4-fluorophenyl)-3-(1H-imidazol-2-yl)-1-benzofuran-6-yl](methylsulfonyl)amino}-N-(methylsulfonyl)butanamide]: the values for the negative logarithm of the IC50 (pIC50) in assay [1], in assay [4] and in assay [5] were 7.80, 8.10 and 6.95, respectively. Moreover, the pEC50 in assay [2] (setting [7]) was 6.97; in assay [2] (setting [8]) it was 5.97; in assay [2] (setting [9]) it was 6.97; in assay [2] (setting [10]), 6.97; in assay [6] (setting [11]), 6.28; in assay [6] (setting [12]) it was 7.16. Also, the pEC50 in assay [6] (setting [13]) was 7.16. In addition, the “C316Y/1a Fold Resistance” value in assay [3] was determined as 14 fold.

Regarding `CC(C)=CCCN(c1cc2oc(-c3ccc(F)cc3)c(-c3ncc[nH]3)c2cc1C1CC1)S(C)(=O)=O` [Example 76, N-[5-cyclopropyl-2-(4-fluorophenyl)-3-(1H-imidazol-2-yl)-1-benzofuran-6-yl]-N-(4-methylpent-3-en-1-yl)methanesulfonamide], the pIC50 in assay [1] is 7.64; in assay [4], 8.23; in assay [5], 6.88. Also, the pEC50 in assay [2] (setting [7]) was 7.31; in assay [2] (setting [8]), 5.40; in assay [2] (setting [9]) it was 7.31; in assay [2] (setting [10]) it was 7.31; in assay [6] (setting [11]), 6.18; in assay [6] (setting [12]), 7.57. Also, in assay [6] (setting [13]), the pEC50 was 7.57. Further, the “C316Y/1a Fold Resistance” value in assay [3] was 22 fold.

As to `CC(C)(O)C(=O)CCN(c1cc2oc(-c3ccc(F)cc3)c(-c3ncc[nH]3)c2cc1C1CC1)S(C)(=O)=O` [Example 106, N-[5-cyclopropyl-2-(4-fluorophenyl)-3-(1H-imidazol-2-yl)-1-benzofuran-6-yl]-N-(4-hydroxy-4-methyl-3-oxopentyl)methanesulfonamide], the pIC50 in assay [1] is 7.72; in assay [4], 8.14; in assay [5] it was 7.00. In addition, the pEC50 in assay [2] (setting [7]) is 7.26; in assay [2] (setting [8]), 6.04; in assay [2] (setting [9]) it was 7.26; in assay [2] (setting [10]), 7.26; in assay [6] (setting [11]), 6.66; in assay [6] (setting [12]), 7.56. In addition, the pEC50 in assay [6] (setting [13]) was 7.56. Also, the “C316Y/1a Fold Resistance” value in assay [3] is 14 fold.

`CS(=O)(=O)N(Cc1cccc(C(F)(F)F)c1)c1ccc2c(-c3ncc[nH]3)c(-c3ccccc3)oc2c1` [Example 32, N-[3-(1H-imidazol-2-yl)-2-phenyl-1-benzofuran-6-yl]-N-[3-(trifluoromethyl)benzyl]methanesulfonamide]: the pIC50 in assay [1] was 7.10; in assay [4], 6.88; in assay [5], 6.83. The pEC50 in assay [2] (setting [7]) is 5.63; in assay [2] (setting [9]), 5.63; in assay [2] (setting [10]), 5.63; in assay [6] (setting [11]) it was 4.10; in assay [6] (setting [12]), 6.22; in assay [6] (setting [13]) it was 6.22. Also, the “C316Y/1a Fold Resistance” value in assay [3] is reported as 1 fold.

On to `CCC1NC(c2c(-c3ccc(F)cc3)oc3cc(N(CCC(C)C)S(C)(=O)=O)c(C4CC4)cc23)=NO1` (stereo not drawn) [Example 155, N-[5-cyclopropyl-3-(5-ethyl-4,5-dihydro-1,2,4-oxadiazol-3-yl)-2-(4-fluorophenyl)-1-benzofuran-6-yl]-N-(3-methylbutyl)methanesulfonamide], for which the pEC50 in assay [2] (setting [7]) was 5.51; in assay [2] (setting [8]) it was 5.00; in assay [2] (setting [9]), 5.51; in assay [2] (setting [10]), 5.51; in assay [6] (setting [11]) it was 5.00; in assay [6] (setting [12]) it was 5.20. Further, the pEC50 in assay [6] (setting [13]) was 5.20. The “C316Y/1a Fold Resistance” value in assay [3] came out at 10 fold. In addition, the values for the pIC50 in assay [4] and in assay [5] were 7.28 and 6.26, respectively.

As for `COc1ccc(CN(c2cc3oc(-c4ccc(F)cc4)c(C4=NC(C)CN4)c3cc2C2CC2)S(C)(=O)=O)cc1` (stereo not drawn) [Example 2a, N-[5-cyclopropyl-2-(4-fluorophenyl)-3-(4-methyl-4,5-dihydro-1H-imidazol-2-yl)-1-benzofuran-6-yl]-N-(4-methoxybenzyl)methanesulfonamide], the pIC50 was 7.26 in assay [1], 7.82 in assay [4] and 6.65 in assay [5]. For the same compound, the “C316Y/1a Fold Resistance” value in assay [3] worked out at 15 fold.
